Key:
[1] = biological target: T1, human recombinant PTP1B (1-302) (Homo sapiens, UniProt P18031); assay: PTP1B activity / inhibition assay (p-NPP hydrolysis); format: biochemical
T1 construct: The human recombinant PTP1B (1-302 aa) and LMW-PTP (full-length) were expressed as fusion proteins; polyhistidine (N); made in house; host or cells: E. coli BL21(DE3) pLysS
T1 sequence (P18031 1-302): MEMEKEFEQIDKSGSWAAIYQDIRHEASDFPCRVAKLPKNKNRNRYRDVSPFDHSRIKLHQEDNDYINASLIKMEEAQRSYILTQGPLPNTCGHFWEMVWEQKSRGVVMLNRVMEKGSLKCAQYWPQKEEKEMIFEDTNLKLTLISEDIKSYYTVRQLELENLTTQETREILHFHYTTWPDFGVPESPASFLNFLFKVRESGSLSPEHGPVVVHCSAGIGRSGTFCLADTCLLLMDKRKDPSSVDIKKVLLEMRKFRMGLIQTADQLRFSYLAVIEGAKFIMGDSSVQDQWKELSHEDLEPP
Protocol: PTP1B activity was determined as previously described. Briefly, each assay was started by adding an aliquot of human recombinant PTP1B (1-302) in the assay buffer (0.075 M β,β-dimethylglutarate pH 7.0, containing 1 mM EDTA, 0.1 mM DTT, and p-nitrophenylphosphate (p-NPP)). All reactions were performed at 37 °C in a final volume of 1 mL. After the incubation time, the reactions were stopped by adding 2 mL of 0.1 M KOH to the samples. The concentration of the released p-nitrophenol was determined by measuring the absorbance at 400 nm in a 1 cm pathlength cuvette. One unit of enzyme activity is the amount that catalyses the conversion of 1 μmol of substrate/min in the above assay conditions.
(§1) PE was dissolved in DMSO at a final concentration of 10 mM and added to the assay mixture containing 10 mU of purified AR (84 nM on the basis of a 34 KDa molecular weight) or 8 mU purified PTP1B (52 nM on the basis of a 36 KDa molecular weight). The reaction was started by the addition of the substrate. The DMSO concentration in the assays for AR determination was kept constant at 0.7 % (v/v) in order to avoid effects on AR activity. The inhibitory effect of PE was determined by measuring the reaction rates in the presence of a fixed substrate concentration (2.5 mM p-NPP and 0.8 mM L-idose for PTP1B and AR, respectively) and increasing inhibitor concentrations (at least 14-16 different concentrations). The IC50 (the inhibitor concentration able to decrease the enzymatic activity up to 50%) values were determined by nonlinear regression analysis using Prism GraphPad 6.0 (GraphPad Software, San Diego, CA, USA), fitting experimental data to the following equation: Vi/V0 = Max − Min/1 + x/IC50^slope + Min where Vi/V0 represents the relative activity calculated in presence of each inhibitor concentration; “Max” and “Min” represent the maximum and minimum value of the activity, respectively; “x” is the concentration of the inhibitor; and “slope” represents the slope of the curve in the transition zone.
(§2) In order to define the mechanism of action of PE, reaction rates were measured in assay mixtures containing different L-idose concentrations (between 0.8 and 6 mM) in the case of AR, and different p-NPP concentrations (between 0.5 and 25 mM) in the case of PTP1B, in the absence and in the presence of different PE concentrations. Data were analysed by Lineweaver–Burk plots. The apparent dissociation constants Ki’ (for the ESI complex) and Ki (for the EI complex) were determined from secondary plots of 1/^appVmax and ^appKM/^appVmax as a function of the inhibitor concentration, respectively.
Figure S3. Determination of IC50 value for PE. […] The amount of p-NP released was determined using a spectrophotometer, measuring the absorbance of samples at 400 nm, using a 1cm path length cuvette. […]

human recombinant AR [2] = biological target: T2, human recombinant AR (Homo sapiens, UniProt P15121); assay: AR activity / inhibition assay (NADPH oxidation, L-idose as substrate); format: biochemical
T2 construct: made in house; host or cells: E. coli BL21(DE3) pLysS
Protocol: AR activity was determined at 37 °C, as previously described, evaluating the decrease in absorbance at 340 nm linked to NADPH oxidation using a Biochrom Libra S60 spectrophotometer. The standard assay mixture contained 0.25 M sodium phosphate buffer pH 6.8, 0.18 mM NADPH, 2.4 M ammonium sulphate, 0.5 mM EDTA, and 4.7 mM D,L-glyceraldehyde. One unit of enzyme activity is the amount that catalyses the conversion of 1 μmol of substrate/min in the above assay conditions. For AR inhibition studies, L-idose (at the indicated concentrations) was used as substrate in the conditions described above.
as §1, §2

human recombinant AR [3] = biological target: T2, human recombinant AR; assay: Reversibility of AR inhibition by dialysis; format: biochemical
Protocol: (§3) The mixture was then extensively dialysed on Amicon ultrafiltration membrane (cut-off 3 KDa) against 10 mM sodium phosphate buffer, pH 7.0. After dialysis, the enzyme activity was again measured using 0.8 mM L-idose as substrate and compared to that of a mixture treated in the same conditions but in the absence of inhibitor. In order to evaluate the reversibility of the inhibitory action on PTP1B, 8 mU of PTP1B was incubated in the presence of a saturating concentration of PE (3 µM) and then incubated at 37 °C for 1 h. After this time, an aliquot of solution was withdrawn and extensively diluted in the assay buffer containing 2.5 mM of p-NPP. Residual activity of PTP1B was determined by calculating the amount of pNP released by measuring the absorbance of solution at 400 nm.

[4] = biological target: T1, human recombinant PTP1B (1-302); assay: Reversibility of PTP1B inhibition, dilution assay; format: biochemical
Protocol: as §3
Figure S3. Determination of IC50 value for PE. An aliquot of PTP1B (8 mU) was incubated in the presence of increasing PE concentration in the assay buffer containing 2.5 mM pNPP. After 30 minutes, the reactions were stopped by adding 2 mL of 0.1 M KOH solution. The amount of p-NP released was determined using a spectrophotometer, measuring the absorbance of samples at 400 nm, using a 1cm path length cuvette. All tests were carried out in triplicate. Data obtained were normalized respect to control test and fitted using an opportune equation (see Material and method […]
Figure S4. Dilution assay. […]

HepG2 cells = assay: Analysis of the insulin signalling pathway (Western blot of IR and Akt phosphorylation); format: cell-based; details: HepG2, PE 25 µM combined with insulin 10 nM, 30 minutes
Protocol: To evaluate whether PE is able to improve the insulin signalling pathway in vitro, we analysed the effect of the compound on HepG2 cell line. For this purpose, we treated HepG2 cells with PE (25 µM final concentration) for 30 minutes in the presence or absence of insulin (10 nM). After treatment, cells were lysed and cellular extracts were analysed to evaluate the phosphorylation status of insulin receptor (IR) and Akt, a kinase downstream IR (Figure 7).
Figure 7 Effect of PE on the insulin signalling pathway. Panel A: Western blot image; Panel B: quantitation of Western blot carried out using Kodak MI software. Data shown were normalized with respect to the control sample. All tests were carried out in triplicate. […]
In order to evaluate the effect of PE on the insulin signalling pathway, HepG2 cells were seeded in 35-mm culture dishes and, after 24 hours, were incubated for 30 minutes with starvation medium (DMEM supplemented with 2 mM glutamine, 100 U/mL penicillin, and 100 μg/mL streptomycin) containing 25 μM of PE and/or 10 nM insulin (Humalog, lispro insulin). […] Cellular extracts were boiled for 5 minutes, and then an aliquot (20 µg of protein) was analysed by SDS-PAGE and Western blot to evaluate both total and phosphorylated expression levels of Akt and IR. β-actin was used as a reference protein to normalise protein loading.

IC50 ([1]; 2.5 mM p-NPP, pH 7.0, 37 °C, 8 mU PTP1B): 1.3 ± 0.04 µM
Type of inhibition of PTP1B ([1]; Lineweaver–Burk analysis): pure non-competitive inhibitor
K'i (ESI complex) for PTP1B ([1]; secondary plot of 1/appVmax vs PE concentration, p-NPP 0.5-25 mM): 0.7 ± 0.1 µM
Ki ([1]; secondary plot of appKM/appVmax vs PE concentration, p-NPP 0.5-25 mM, read-out: Ki (EI complex) for PTP1B): 0.7 ± 0.1 µM
IC50 (human recombinant AR [2]; 0.8 mM L-idose, pH 6.8, 37 °C, 10 mU AR): 28.7 ± 1.1 µM
Type of inhibition of AR (human recombinant AR [2]; Lineweaver–Burk analysis): mixed inhibitor
K'i (ESI complex) for AR (human recombinant AR [2]; secondary plot of 1/appVmax vs PE concentration, L-idose 0.8-6 mM): 36 ± 1 µM
Ki (human recombinant AR [2]; secondary plot of appKM/appVmax vs PE concentration, L-idose 0.8-6 mM, read-out: Ki (EI complex) for AR): 47 ± 1 µM
Reversibility of AR inhibition (human recombinant AR [3]): reversible inhibitor
AR enzyme activity recovered after removal of inhibitor by extensive dialysis (human recombinant AR [3]; 10 mU AR incubated 90 min at 0 °C with PE 3 mM, then dialysed, 0.8 mM L-idose): 100%
Reversibility of PTP1B inhibition [4]: reversible inhibitor
PTP1B activity recovered after dilution ([4]; incubation with saturating PE (3 µM) at 37 °C, then dilution in buffer with 2.5 mM p-NPP): almost completely
Structure (SMILES): CCCCCCCCCCCCCCC(OP(=O)(O)O)C(O)CCC(O)C(O)CCC(O)CCCCCCC(=O)NCC(=O)O (centres unmarked) [PE, phosphoeleganin]
Akt phosphorylation level (HepG2 cells): significant increase
IR phosphorylation level (HepG2 cells): significant increase

— article PMC8540617, “Dual Targeting of PTP1B and Aldose Reductase with Marine Drug Phosphoeleganin: A Promising Strategy for Treatment of Type 2 Diabetes” (Marine Drugs, 2021)
